Each structure is given as a SMILES string. Read-outs that look alike come from different tables or passages of the source.

The target in assay [1] is TcdB GTD domain (amino acids 1 to 543) (Clostridioides difficile, UniProt P18177). In kind it is biochemical, Clostridium difficile.
For a further assay, the target named is full-length TcdA (Clostridioides difficile, UniProt P16154). The assay can be described thus: IP6-induced autoprocessing / TAMRA–AWP-19 labeling of full-length TcdA. In kind it is biochemical, Clostridium difficile.
Assay [2] relates to TcdB-induced cell rounding, human foreskin fibroblast (HFF) cells. As to the kind of experiment: cells. In kind it is cell-based. As to conditions: for EC50: Homo sapiens, HFF.
For a further assay, the target named is TcdB (Clostridioides difficile, UniProt P18177). The assay can be described thus: murine systemic intoxication. In kind it is in vivo, mouse. To be noted: mice, TcdB 1.0 µg/kg i.p. pretreated with 100 nM ebselen.
In assay [3] the test system is large clostridial toxins (TcdA and TcdB) in patient stool sample, cell rounding. The assay can be described thus: cells. As to conditions: Homo sapiens, read-out: EC50 for inhibition of toxin-induced cytopathology. Type of assay: cell-based.
A further assay concerns C. difficile strain 630. As to the kind of experiment: mouse C. difficile infection model. In kind it is in vivo. As to conditions: for histopathological score, dose-response study: 5-day treatment.
In another assay the target is full-length TcdB (Clostridioides difficile, UniProt P18177). Type of assay: biochemical, Clostridium difficile.
Another assay addresses TcdB CPD domain (Clostridioides difficile, UniProt P18177). The assay can be described thus: competition labeling assay with TAMRA–AWP-19. In kind it is biochemical, Clostridium difficile. To be noted: IP6-activated CPD, TAMRA–AWP-19 labeling.
[4] abbreviates: 100 mg/kg daily oral gavage, day 5, vs vehicle.

full-length TcdB, sequence (P18177 whole entry, the tested form may be a part): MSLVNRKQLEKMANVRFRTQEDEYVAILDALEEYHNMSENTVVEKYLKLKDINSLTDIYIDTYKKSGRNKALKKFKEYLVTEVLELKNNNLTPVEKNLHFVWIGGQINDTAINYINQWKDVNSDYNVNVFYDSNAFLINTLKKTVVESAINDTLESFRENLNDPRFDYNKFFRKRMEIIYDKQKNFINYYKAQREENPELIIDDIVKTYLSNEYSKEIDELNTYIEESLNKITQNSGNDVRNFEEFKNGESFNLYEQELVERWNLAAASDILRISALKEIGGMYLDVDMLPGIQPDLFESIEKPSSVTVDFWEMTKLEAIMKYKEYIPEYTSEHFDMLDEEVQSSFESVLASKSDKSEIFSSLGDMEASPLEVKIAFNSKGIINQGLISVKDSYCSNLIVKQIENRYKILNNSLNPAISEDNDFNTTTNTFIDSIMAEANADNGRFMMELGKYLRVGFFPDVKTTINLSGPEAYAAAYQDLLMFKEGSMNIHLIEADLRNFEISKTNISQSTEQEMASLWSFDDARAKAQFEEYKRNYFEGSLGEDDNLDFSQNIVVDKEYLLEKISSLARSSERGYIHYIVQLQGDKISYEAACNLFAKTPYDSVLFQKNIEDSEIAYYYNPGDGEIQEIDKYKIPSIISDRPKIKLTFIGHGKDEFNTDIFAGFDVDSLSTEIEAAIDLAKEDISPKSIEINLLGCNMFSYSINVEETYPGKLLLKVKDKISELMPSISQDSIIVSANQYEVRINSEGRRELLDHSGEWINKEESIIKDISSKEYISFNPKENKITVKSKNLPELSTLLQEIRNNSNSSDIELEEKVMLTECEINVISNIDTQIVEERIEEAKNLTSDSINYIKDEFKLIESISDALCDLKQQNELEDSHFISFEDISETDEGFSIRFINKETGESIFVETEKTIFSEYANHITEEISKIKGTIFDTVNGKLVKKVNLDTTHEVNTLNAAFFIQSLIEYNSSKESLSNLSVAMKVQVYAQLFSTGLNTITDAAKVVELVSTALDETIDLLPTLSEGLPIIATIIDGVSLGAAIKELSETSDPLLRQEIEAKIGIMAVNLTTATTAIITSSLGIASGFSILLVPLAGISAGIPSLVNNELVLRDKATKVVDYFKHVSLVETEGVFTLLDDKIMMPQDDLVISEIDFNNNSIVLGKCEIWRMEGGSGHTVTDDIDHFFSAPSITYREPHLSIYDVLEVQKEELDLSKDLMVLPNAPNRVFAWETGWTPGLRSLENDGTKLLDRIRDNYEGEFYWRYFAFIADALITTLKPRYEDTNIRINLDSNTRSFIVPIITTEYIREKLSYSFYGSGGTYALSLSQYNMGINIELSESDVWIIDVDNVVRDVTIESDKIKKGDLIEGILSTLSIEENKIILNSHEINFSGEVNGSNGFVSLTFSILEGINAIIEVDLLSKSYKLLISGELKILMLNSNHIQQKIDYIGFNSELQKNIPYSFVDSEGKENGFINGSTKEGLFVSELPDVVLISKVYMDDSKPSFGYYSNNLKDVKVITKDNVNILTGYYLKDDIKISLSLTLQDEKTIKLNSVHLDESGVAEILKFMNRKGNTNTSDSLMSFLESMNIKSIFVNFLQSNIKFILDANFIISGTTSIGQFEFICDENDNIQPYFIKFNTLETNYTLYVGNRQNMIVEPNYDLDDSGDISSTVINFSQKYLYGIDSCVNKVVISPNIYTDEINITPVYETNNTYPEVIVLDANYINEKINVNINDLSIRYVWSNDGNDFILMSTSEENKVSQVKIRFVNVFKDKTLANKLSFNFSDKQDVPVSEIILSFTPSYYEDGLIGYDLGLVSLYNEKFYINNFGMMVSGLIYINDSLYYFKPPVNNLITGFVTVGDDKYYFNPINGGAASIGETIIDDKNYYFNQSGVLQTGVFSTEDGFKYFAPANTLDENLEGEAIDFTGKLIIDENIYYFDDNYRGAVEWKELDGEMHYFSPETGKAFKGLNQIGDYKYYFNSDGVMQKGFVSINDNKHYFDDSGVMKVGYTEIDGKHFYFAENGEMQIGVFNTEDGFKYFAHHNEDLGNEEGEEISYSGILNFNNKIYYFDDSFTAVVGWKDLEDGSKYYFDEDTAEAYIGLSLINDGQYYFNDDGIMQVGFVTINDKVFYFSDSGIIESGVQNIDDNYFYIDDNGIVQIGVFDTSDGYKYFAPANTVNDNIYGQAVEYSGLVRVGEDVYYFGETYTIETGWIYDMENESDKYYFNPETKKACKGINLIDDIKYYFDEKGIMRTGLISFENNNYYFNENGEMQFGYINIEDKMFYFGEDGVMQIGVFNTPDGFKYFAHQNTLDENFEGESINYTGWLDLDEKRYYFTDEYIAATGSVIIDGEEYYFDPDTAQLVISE
TcdB, sequence (P18177 2-2366 limits assumed): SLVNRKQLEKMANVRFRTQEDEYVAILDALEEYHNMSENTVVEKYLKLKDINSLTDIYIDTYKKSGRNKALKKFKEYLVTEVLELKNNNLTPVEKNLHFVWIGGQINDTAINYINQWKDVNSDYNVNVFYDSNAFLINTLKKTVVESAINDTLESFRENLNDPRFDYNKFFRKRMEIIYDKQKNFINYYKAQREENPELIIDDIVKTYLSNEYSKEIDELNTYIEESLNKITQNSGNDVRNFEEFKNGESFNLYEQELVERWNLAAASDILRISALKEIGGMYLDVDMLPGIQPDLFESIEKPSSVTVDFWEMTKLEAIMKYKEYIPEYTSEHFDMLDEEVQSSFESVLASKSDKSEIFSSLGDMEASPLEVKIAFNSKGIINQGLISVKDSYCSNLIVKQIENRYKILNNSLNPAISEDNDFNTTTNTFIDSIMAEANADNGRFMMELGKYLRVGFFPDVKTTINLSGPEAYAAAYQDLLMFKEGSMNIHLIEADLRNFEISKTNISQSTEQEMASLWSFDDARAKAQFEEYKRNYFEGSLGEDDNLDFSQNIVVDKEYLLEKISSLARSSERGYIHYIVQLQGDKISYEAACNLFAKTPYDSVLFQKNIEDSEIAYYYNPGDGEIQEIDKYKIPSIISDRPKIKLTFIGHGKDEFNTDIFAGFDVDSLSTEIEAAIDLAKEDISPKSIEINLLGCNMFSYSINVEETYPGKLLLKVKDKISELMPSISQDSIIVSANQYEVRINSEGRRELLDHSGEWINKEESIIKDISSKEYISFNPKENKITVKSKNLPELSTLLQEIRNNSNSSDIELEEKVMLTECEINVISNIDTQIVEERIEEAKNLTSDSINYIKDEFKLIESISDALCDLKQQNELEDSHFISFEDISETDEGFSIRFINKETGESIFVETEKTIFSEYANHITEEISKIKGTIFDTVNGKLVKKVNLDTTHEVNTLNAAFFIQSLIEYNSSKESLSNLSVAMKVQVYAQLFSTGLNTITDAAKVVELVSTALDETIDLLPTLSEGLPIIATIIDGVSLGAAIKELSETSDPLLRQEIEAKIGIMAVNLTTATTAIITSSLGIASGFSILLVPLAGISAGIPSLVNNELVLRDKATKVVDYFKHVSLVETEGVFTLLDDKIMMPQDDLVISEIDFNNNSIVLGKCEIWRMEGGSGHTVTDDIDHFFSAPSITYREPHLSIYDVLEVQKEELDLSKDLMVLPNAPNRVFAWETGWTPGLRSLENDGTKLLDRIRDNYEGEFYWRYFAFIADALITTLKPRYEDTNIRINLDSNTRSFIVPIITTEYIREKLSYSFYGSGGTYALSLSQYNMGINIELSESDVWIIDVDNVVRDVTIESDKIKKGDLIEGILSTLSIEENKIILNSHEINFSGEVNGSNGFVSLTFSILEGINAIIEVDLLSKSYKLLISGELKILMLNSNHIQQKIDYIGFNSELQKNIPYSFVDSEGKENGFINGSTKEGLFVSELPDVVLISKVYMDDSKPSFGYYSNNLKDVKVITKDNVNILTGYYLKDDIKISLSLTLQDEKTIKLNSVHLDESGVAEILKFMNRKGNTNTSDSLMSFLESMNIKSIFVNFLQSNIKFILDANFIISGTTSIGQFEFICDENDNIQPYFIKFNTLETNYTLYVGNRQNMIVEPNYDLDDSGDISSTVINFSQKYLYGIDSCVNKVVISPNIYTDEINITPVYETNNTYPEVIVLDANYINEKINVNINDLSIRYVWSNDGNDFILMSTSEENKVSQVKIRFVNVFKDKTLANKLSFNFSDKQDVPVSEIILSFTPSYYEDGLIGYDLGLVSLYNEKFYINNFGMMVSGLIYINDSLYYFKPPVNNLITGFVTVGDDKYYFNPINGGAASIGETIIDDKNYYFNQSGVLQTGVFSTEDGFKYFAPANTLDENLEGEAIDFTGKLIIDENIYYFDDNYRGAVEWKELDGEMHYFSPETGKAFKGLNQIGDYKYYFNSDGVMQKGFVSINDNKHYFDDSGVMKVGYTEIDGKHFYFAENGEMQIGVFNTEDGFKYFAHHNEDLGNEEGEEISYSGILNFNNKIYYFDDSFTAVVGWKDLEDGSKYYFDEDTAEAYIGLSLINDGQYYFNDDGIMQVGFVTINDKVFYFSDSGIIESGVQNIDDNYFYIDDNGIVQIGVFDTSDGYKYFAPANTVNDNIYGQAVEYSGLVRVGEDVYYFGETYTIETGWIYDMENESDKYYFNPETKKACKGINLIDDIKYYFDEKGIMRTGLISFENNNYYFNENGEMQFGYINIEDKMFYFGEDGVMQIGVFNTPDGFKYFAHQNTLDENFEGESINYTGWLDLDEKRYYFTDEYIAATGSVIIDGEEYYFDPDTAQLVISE
TcdB CPD domain, sequence (P18177 544-799 limits assumed): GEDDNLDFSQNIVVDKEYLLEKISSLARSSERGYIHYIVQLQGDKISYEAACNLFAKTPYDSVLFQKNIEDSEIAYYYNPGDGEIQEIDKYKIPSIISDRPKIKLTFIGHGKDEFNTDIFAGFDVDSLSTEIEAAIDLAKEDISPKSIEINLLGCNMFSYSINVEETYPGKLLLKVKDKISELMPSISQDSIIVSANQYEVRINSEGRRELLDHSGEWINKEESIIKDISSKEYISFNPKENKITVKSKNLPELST

As for `O=c1c2ccccc2[se]n1-c1ccccc1` [ebselen, 2-phenyl-1,2-benzoselenazol-3-one], in assay [1], the “inhibition of glucosyltransferase activity of the GTD domain” value is “did not show any inhibition”. Moreover, at full-length TcdA, the “inhibition of IP6-induced autoprocessing of full-length TcdA” value is given as “low nanomolar potency”. For the same compound, the “glucosylated Rac1 (Western blot, mAb102 nonglucosylated Rac1)” value in assay [2] is on record as “decreased with increasing amounts of ebselen”. Moreover, the “protection against delayed toxicity of L543A noncleavable mutant TcdB” value in assay [2] is “showed further protection”. In addition, the EC50 (as a rule, the concentration that produces a half-maximal response) in assay [2] (read-out: EC50 for blocking cell rounding) worked out at 20.5 nM; in assay [2] (read-out: EC50 for protection against cell rounding), 217 nM; in assay [3], 372 nM. Moreover, the “clinical signs of toxin action (vital signs)” value on TcdB is recorded as “no significant changes in vital signs”. For the same compound, the figures for the “histopathological score, dose-response study” value with C. difficile strain 630 (1 mg/kg daily), in the assay with C. difficile strain 630 (10 mg/kg daily) and in the assay with C. difficile strain 630 (100 mg/kg daily) were “no improvement in histopathological score”, “partial response” and “virtually complete response”, respectively. Also, in the assay with C. difficile strain 630 (100 mg/kg daily oral gavage, 5-day experiment), the “C. difficile CFU counts in feces” value is “did not significantly affect”. For the same compound, the “histopathological scores for cell infiltration, submucosal edema, and mucosal hypertrophy” value with C. difficile strain 630 (setting [4]) is recorded as “significantly lower”. Also, the “overall histopathological (clinical) score” value in the assay with C. difficile strain 630 (setting [4]) is “statistically significant drop in clinical score”. Further, the “cell rounding activity of shed toxin in feces (quantity of feces required to induce 50% cell rounding)” value in the assay with C. difficile strain 630 (100 mg/kg daily oral gavage, day 5 after infection) is reported as “reduction in cell rounding activity of shed toxin”. For the same compound, the “cleaved form of GTD in colon tissues (Western blot)” value with C. difficile strain 630 (100 mg/kg daily oral gavage, vs vehicle) is recorded as “reduced the amount of the cleaved form of GTD”. Further, on full-length TcdB, the “concentration giving complete inhibition of IP6-induced release of the GTD” value came out at 20 nM. Further, at full-length TcdB, the “inhibition of IP6-induced autoprocessing of full-length TcdB” value is “low nanomolar potency”. The “inhibition of IP6-induced labeling of the CPD active-site cysteine” value at TcdB CPD domain was “low nanomolar concentrations”.

These data come from publication PMC6025901 (Science translational medicine, 2015).
